In PubChem BioAssay (NCI):
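Briefly, cells in 96-well plates were exposed to five compound concentrations for 48 h, and endpoints were estimated by linear interpolation. GI50: concentration for 50% inhibition of growth. TGI is the concentration that stops growth completely.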

Columns and labels:
Test in all cases: inhibition of tumour cell growth, NCI panel, 48 h
[1] = test system: 786-0 renal
[2] = test system: HCT-15 colon
[3] = test system: LOX IMVI melanoma
[4] = test system: SN12C renal
[5] = test system: SNB-19 CNS
[6] = test system: SR leukemia
[7] = test system: UACC-62 melanoma
[8] = test system: UO-31 renal
[9] = test system: MCF7 breast
[10] = test system: OVCAR-5 ovarian

| SMILES | GI50 [1] [µM] | TGI [1] [µM] | GI50 [2] [µM] | TGI [2] [µM] | GI50 [3] [µM] | TGI [3] [µM] | GI50 [4] [µM] | TGI [4] [µM] | GI50 [5] [µM] | TGI [5] [µM] | GI50 [6] [µM] | TGI [6] [µM] | GI50 [7] [µM] | TGI [7] [µM] | GI50 [8] [µM] | TGI [8] [µM] | GI50 [9] [µM] | TGI [9] [µM] | GI50 [10] [µM] | TGI [10] [µM] |
| --- | --- | --- | --- | --- | --- | --- | --- | --- | --- | --- | --- | --- | --- | --- | --- | --- | --- | --- | --- | --- |
| CCN1CCN(CC(=O)Nc2nc3ccc(NCc4ccc(Cl)cc4)cc3s2)CC1 | 6.38 | 20.1 | 1.95 | 4.66 | 1.68 | 3.17 | 2.94 | 11.9 | 3.12 | 10.7 | 2.78 | 17 | 2.08 | 4.03 | 1.62 | 3.19 | – | – | – | – |
| CN(c1ccc(NC(=O)Nc2ccc(OC(F)(F)F)cc2)cc1)c1ccnc(Nc2cccc(S(N)(=O)=O)c2)n1 | 5.25 | 12 | 5.34 | 15.3 | 0.725 | 3.97 | 2.27 | 11.5 | 5.49 | 14.3 | – | – | 3.02 | 7.13 | 4.63 | 11.9 | 1.06 | 5.56 | 5.47 | 13.7 |
| Cc1ccc(S(=O)(=O)NNC(=O)c2sc(-c3nc(C)c(C(=O)NNS(=O)(=O)c4ccc(C)cc4)s3)nc2C)cc1 | – | > 100 | – | > 100 | – | > 100 | – | > 100 | – | > 100 | – | – | – | > 100 | – | 99.7 | – | – | – | > 100 |
| CC1CC2C(=O)N(c3ccccc3)C(=O)C2c2c1c1ccccc1n2Cc1ccccc1 (stereo unspecified) | – | > 100 | – | > 100 | – | > 100 | – | > 100 | – | – | – | > 100 | – | > 100 | – | > 100 | – | – | – | > 100 |
| C[C@H]1[C@H](C)CC[C@]2(C(=O)N3CCN(C)CC3)CC[C@]3(C)C(=CC[C@@H]4[C@@]5(C)C/C(=C/c6cccnc6)C(=O)C(C)(C)[C@@H]5CC[C@]43C)[C@H]12 | 0.67 | 2 | 0.96 | 2.45 | 1.41 | 2.88 | 1.15 | 2.65 | 0.956 | 2.23 | 1.37 | > 100 | 1.15 | 2.52 | 0.775 | 2.16 | – | – | 1.55 | 2.91 |
| N#C/C(=C1\NN=C(N)C(c2ccc(Cl)cc2)=C1O)c1ccc(Cl)cc1 | – | > 100 | – | – | – | > 100 | – | > 100 | – | > 100 | – | > 100 | – | > 100 | – | > 100 | – | – | – | > 100 |
| O=C(O)CCSCCCN1C(=O)c2ccccc2C1=O | – | > 100 | – | > 100 | – | – | – | > 100 | – | > 100 | – | > 100 | – | > 100 | – | > 100 | – | – | – | > 100 |
| O=C1OC(CC(=O)c2ccc(Cl)cc2Cl)C(Cl)=C1Cl (stereo unspecified) | – | 52.2 | – | > 70.6 | – | 57.9 | – | > 31.6 | – | > 76.6 | – | 70.4 | – | 40 | – | > 56.7 | – | – | – | > 62.8 |
| Cc1ccc(NC(=O)c2cc3ccccc3c(N=Nc3ccccc3O)c2O)c(C)c1 | – | 11.8 | – | 11.1 | – | – | – | – | – | 6.61 | – | 3.53 | – | – | – | – | – | 13.7 | – | 19.5 |
| Cc1cccc(NC(=O)c2cc3cc(N=Nc4ccccc4Cl)ccc3oc2=O)c1 | – | > 100 | – | > 100 | – | 27.4 | – | > 100 | – | > 100 | – | – | – | 42.5 | – | 55.7 | – | – | – | 56.8 |
| O=C(/C=C/c1ccc(Cl)c(Cl)c1)c1ccc(F)cc1 | – | 28.9 | – | 22.7 | – | – | – | 52.2 | – | 32.7 | – | – | – | 28.8 | – | > 100 | – | – | – | 55.2 |
| CC(=O)NCCSC(=O)c1ccccc1 | – | 0.425 | – | 1.04 | – | 0.306 | – | 0.492 | – | 15.2 | – | 0.66 | – | 0.0786 | – | – | – | – | – | 0.527 |
| Cc1cc(C)c2c(c1)Nc1ccccc1P2c1ccccc1 (stereo unspecified) | – | > 100 | – | > 100 | – | > 100 | – | > 100 | – | 83.9 | – | – | – | > 100 | – | 57.8 | – | – | – | – |
| Nc1c(Br)c(=O)[nH]c(=O)n1COCCO | – | > 100 | – | – | – | > 100 | – | > 100 | – | > 100 | – | > 100 | – | > 100 | – | > 100 | – | – | – | > 100 |
| Cc1nn(-c2ccccc2)c2c1CC(=O)Nc1ccccc1-2 | 0.57 | > 100 | 0.145 | > 100 | 0.431 | > 100 | – | > 100 | – | – | – | – | 0.158 | 73.4 | 1.11 | > 100 | 0.0788 | > 100 | – | > 100 |
| C=C1CC2(C[C@@H](c3ccccc3)O[C@@H](c3ccccc3)C2)OC1=O (stereo partly specified) | – | 5.63 | – | 5.91 | – | 2.84 | – | 9.62 | – | 29.7 | – | – | – | 7.7 | – | 18.4 | – | 5.73 | – | 26.9 |
| O=c1c2cc(Br)ccc2nc(-c2ccccc2Cl)n1NCC1(O)OCC(O)C(O)C1O (stereo unspecified) | – | > 100 | – | > 100 | – | > 100 | – | > 100 | – | > 100 | – | > 100 | – | > 100 | – | > 100 | – | – | – | > 100 |
| N#Cc1cccc(C(=O)Nc2cccc(NC(=O)c3cccc(C#N)c3)c2)c1 | 33.4 | > 100 | 73.9 | > 100 | – | – | 34.1 | > 100 | > 100 | > 100 | – | – | 34.1 | > 100 | > 100 | > 100 | 90.9 | > 100 | > 100 | > 100 |
| CC(C)C[C@H](NC(=O)[C@H]1O[C@@H]1C(=O)O)C(=O)NCCc1ccc(O)cc1 | > 100 | > 100 | > 100 | > 100 | 74.1 | > 100 | > 100 | > 100 | > 100 | > 100 | – | – | > 100 | > 100 | 38.4 | > 100 | > 100 | > 100 | > 100 | > 100 |
| Nc1ccn(CCO)c(=O)n1 | – | > 100 | – | > 100 | – | > 100 | – | > 100 | – | – | – | > 100 | – | > 100 | – | > 100 | – | – | – | > 100 |
